Test results as given in paper PMC11148772, “Inhibition of protein translational machinery in triple-negative breast cancer as a promising therapeutic strategy” (Cell Reports Medicine, 2024).
Residues, ends and D or L forms follow the SMILES beside them. *: point of attachment. Cbz = O=C(OCc1ccccc1)*

Legend:
YB-1 [1] = target: T1, YB-1 (Homo sapiens, UniProt P67809); experiment: Pulldown assay with biotinylated SU056, MDA-MB-468; assay type: binding; set-up: endogenous in cells; settings: 2 μM, 2 h
Description: (§1) Protein pulldown assay was performed using biotinylated SU056. MDA-MB-231 and MDA-MB-468 cells were treated with 2 μM biotinylated SU056 for 2 h. After 2 h of treatment, cells were collected and lysed using M-PER lysis solution (Thermo Scientific, #78503), supplemented with Halt protease and phosphatase inhibitor cocktail (Thermo Scientific, #78440). Protein lysate from Biotinylated SU056 treated cells were treated with RNase (10 μg/mL) for 15 min at 37°C. 600 μg protein was incubated with magnetic conjugate streptavidin bead (CST, #5947) at room temperature on rocker for 30 min. Biotin-streptavidin conjugates were pulled down and washed using a magnetic rack. After three washes, beads were resuspended in 2X SDS sample buffer followed by heating at 90°C–100°C for 5 min. Samples were resolved and probed with anti-YB-1 and anti-RPL11 antibodies as described in immunoblotting. Samples of protein lysates from MDA-MB-231 and MDA-MB-468 without biotinylated SU056 (input), samples from pulldown using only biotin and only streptavidin beads were used as experimental controls.

YB-1 [2] = target: T1, YB-1; experiment: Pulldown assay with biotinylated SU056, MDA-MB-231; assay type: binding; set-up: endogenous in cells; host or cells: MDA-MB-231; settings: 2 μM, 2 h
Description: as §1

[3] = system: TNBC cells (MDA-MB-231, MDA-MB-468, SUM159); experiment: Immunoblot assay of cell lysates; assay type: cell-based, human; settings: MG132 10 μM + SU056 1 μM, 15 h, MDA-MB-231 and MDA-MB-468

SMILES | interaction with YB-1 (pull-down) (YB-1 [1]) | increase of interaction with YB-1 in RNase-treated protein lysates (YB-1 [1]; RNase 10 μg/mL) [fold] | interaction with YB-1 (pull-down) (YB-1 [2]) | increase of interaction with YB-1 in RNase-treated protein lysates (YB-1 [2]; RNase 10 μg/mL) [fold] | effect on SU056-induced decrease in levels of YB-1 and RPL11 [3]
O=C(CCCC[C@@H]1SC[C@@H]2NC(=O)N[C@@H]21)NCCSSCCC(=O)OCCN1C2=C(C(=O)OC2)C(c2cccc(F)c2)c2cc3c(cc21)OCO3 (stereo partly drawn) [biotinylated SU056, 2-(9-(3-fluorophenyl)-8-oxo-6,9-dihydro-[1,3]dioxolo[4,5-g]furo[3,4-b]quinolin-5(8H)-yl)ethyl 3-((2-(5-((3aS,4S,6aR)-2-oxohexahydro-1H-thieno[3,4-day]imidazol-4-yl)pentanamido)ethyl)disulfaneyl)propanoate] | physically interacts | 18.76 | physically interacts | 3.13 | –
CC(C)C[C@@H](C=O)NC(=O)[C@H](CC(C)C)NC(=O)[C@H](CC(C)C)NC(=O)OCc1ccccc1 [MG132, reference compound] (Cbz-Leu-Leu-Leu-aldehyde) | – | – | – | – | partially reversed
